Assay results from patent US6340677B1, “Method of evaluation of skin conditioning-ameliorating agents and method of producing compositions for topical application to skin” (Pola Chemical Industries, Inc., priority 1997, dated 2002).

Test system: mouse photo-aging model
Test: degree of order of dermis collagen fiber bundle in the mouse photo-aging model (score 0 to 3 from electron microphotographs)
Assay type: in vivo, hairless mice (Skh: HR-1)
Settings: 0.05% solution in ethanol
Protocol: Five groups of hairless mice (Skh: HR-1,female, 8-week-old), each group comprising six mice, were prepared. A part of skin and replica of skin surface morphology were excised from each mouse of one group of them when they were 8 weeks old without the following ultraviolet light irradiation, namely in-the state of before the ultraviolet light irradiation. About the remaining four groups, each mouse was irradiated with ultraviolet light B (Toshiba SE lamp, 60 mJ/cm^2) once per day for 5 days a week and fed up. The irradiation of the ultraviolet light to one group among the four groups described-above was stopped after one week of the initiation of the irradiation and at this time a part of skin and replica of skin surface morphology were excised from each mouse of the group. As the same manner, the irradiation of the ultraviolet light to the another group and to the further another group were stopped after two and five weeks of the initiation of the irradiation and then a part of skin and replica of skin surface morphology were excised from each mouse of the groups respectively. The irradiation of the ultraviolet light to the last group was continued to 10 weeks after initiation of the irradiation to prepare the mouse photo-aging models. Thus the total amount of the ultraviolet light irradiated to the mouse photo-aging models was 3J/cm^2. A part of skin and replica of skin surface morphology were also excised from each mouse photo-aging model obtained above. […] Each of the solution was given in an amount of 0.05 ml once a day for consecutive 8 weeks. After completion of the application, a part of the skin was excised from each mouse to take photographs of its surface morphology under scanning electron microscope. […] Evaluation was carried out using the value calculated by dividing the degree of order of the dermis collagen fiber bundle measured by the above method after the application by that before the application.

## C[C@@H]1C[C@H]2[C@@H]3CCC4=CC(=O)C=C[C@]4(C)[C@@]3(F)[C@@H](O)C[C@]2(C)[C@@]1(O)C(=O)CO [dexamethasone]
0.05 ml once a day for consecutive 8 weeks, five mice, score 0 to 3, 2,500 magnification, before application 0.82
  average of the scores of the degree of order of dermis collagen fiber bundle: 1.71
8 weeks, 1.71/0.78
  degree of amelioration of skin conditions (average score of treated group / average score of ethanol-applied group): 2.28
8 weeks, 1.71/0.82
  degree of amelioration of skin conditions (score after application / score before application): 2.09
